# In patent publication US9850225B2, “Compounds useful as immunomodulators” (BRISTOL-MYERS SQUIBB COMPANY, priority 2014, dated 2017):
# Target: PD-1/PD-L1 interaction (PD-1-Ig / PD-L1-His) (Homo sapiens (Human), UniProt Q9NZQ7)
# Test: PD-1/PD-L1 Homogenous Time-Resolved Fluorescence (HTRF) binding assay
# Details: PD-1/PD-L1 HTRF binding assay; numeric value; read-out: Range or IC50
# Source text: The ability of the compounds of formula (I) to bind to PD-L1 was investigated using a PD-1/PD-L1 Homogenous Time-Resolved Fluorescence (HTRF) binding assay.
# Homogenous Time-Resolved Fluorescence (HTRF) Binding Assay.
# The interaction of PD-1 and PD-L1 can be assessed using soluble, purified preparations of the extracellular domains of the two proteins. The PD-1 and PD-L1 protein extracellular domains were expressed as fusion proteins with detection tags, for PD-1, the tag was the Fc portion of Immunoglobulin (PD-1-Ig) and for PD-L1 it was the 6 histidine motif (PD-L1-His). All binding studies were performed in an HTRF assay buffer consisting of dPBS supplemented with 0.1% […] bovine serum albumin and 0.05% (v/v) Tween-20. For the h/PD-L1-His binding assay, inhibitors were pre-incubated with PD-L1-His (10 nM final) for 15 m in 4 μl of assay buffer, followed by addition of PD-1-Ig (20 nM final) in 1 μl of assay buffer and further incubation for 15 m. HTRF detection was achieved using europium crypate-labeled anti-Ig (1 nM final) and allophycocyanin (APC) labeled anti-His (20 nM final). Antibodies were diluted in HTRF detection buffer and 5 μl was dispensed on top of the binding reaction. […] Additional binding assays were established between the human proteins PD-1-Ig/PD-L2-His (20 & 5 nM, respectively) and CD80-His/PD-L1-Ig (100 & 10 nM, respectively). […]
# PD-1/PD-L1 interaction (PD-1-Ig / PD-L1-His), sequence (Q9NZQ7 other isoform, or with tags, fused parts or gaps): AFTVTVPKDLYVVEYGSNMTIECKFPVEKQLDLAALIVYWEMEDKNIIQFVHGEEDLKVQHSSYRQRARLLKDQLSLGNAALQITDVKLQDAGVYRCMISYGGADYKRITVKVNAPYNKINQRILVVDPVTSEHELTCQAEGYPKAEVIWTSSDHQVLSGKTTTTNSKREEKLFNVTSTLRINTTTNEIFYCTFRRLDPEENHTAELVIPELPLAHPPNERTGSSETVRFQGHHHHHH
row,IC50 [nM],SMILES
1,239,"CC(=O)NCCNCc1ccc(OCc2cccc(-c3ccccc3)c2C)cc1OCc1ccc(C(=O)O)cc1 [Example 1043, 4-((2-(((2-acetamidoethyl)amino)methyl)-5-((2-methyl-[1,1′-biphenyl]-3-yl)methoxy)phenoxy)methyl)benzoic acid]"
2,986,"CC(=O)NCCNCc1ccc(OCc2cccc(-c3ccccc3)c2C)cc1OCc1ccccc1[N+](=O)[O-] [Example 1057, N-(2-((4-((2-methyl-[1,1′-biphenyl]-3-yl)methoxy)-2-((2-nitrobenzyl)oxy)benzyl)amino)ethyl)acetamide]"

# Same assay, conditions: PD-1/PD-L1 HTRF binding assay; value given as range class; read-out: Range or IC50
row,SMILES,IC50 [nM]
1,"CC(=O)NCCNCc1ccc(OCc2cccc(-c3ccccc3)c2C)cc1OCCO [Example 1030, N-(2-((2-(2-hydroxyethoxy)-4-((2-methyl-[1,1′-biphenyl]-3-yl)methoxy)benzyl)amino)ethyl)acetamide]",100 to 20000
2,"CC(=O)NCCNCc1ccc(OCc2cccc(-c3ccccc3)c2C)cc1OCC(N)=O [Example 1031, 2-(2-(((2-acetamidoethyl)amino)methyl)-5-((2-methyl-[1,1′-biphenyl]-3-yl)methoxy)phenoxy)acetamide]",100 to 20000
3,"COC(=O)CCCCOc1cc(OCc2cccc(-c3ccccc3)c2C)ccc1CNCCNC(C)=O [Example 1032, methyl 5-(2-(((2-acetamidoethyl)amino)methyl)-5-((2-methyl-[1,1′-biphenyl]-3-yl)methoxy)phenoxy)pentanoate]",100 to 20000
4,"CC(=O)NCCNCc1ccc(OCc2cccc(-c3ccccc3)c2C)cc1OCCc1ccccc1 [Example 1033, N-(2-((4-((2-methyl-[1,1′-biphenyl]-3-yl)methoxy)-2-phenethoxybenzyl)amino)ethyl)acetamide]",100 to 20000
5,"COC(=O)c1cccc(COc2cc(OCc3cccc(-c4ccccc4)c3C)ccc2CNCCNC(C)=O)c1 [Example 1034, methyl 3-((2-(((2-acetamidoethyl)amino)methyl)-5-((2-methyl-[1,1′-biphenyl]-3-yl)methoxy)phenoxy)methyl)benzoate]",100 to 20000
6,"CC(=O)NCCNCc1ccc(OCc2cccc(-c3ccccc3)c2C)cc1OCCCO [Example 1035, N-(2-((2-(3-hydroxypropoxy)-4-((2-methyl-[1,1′-biphenyl]-3-yl)methoxy)benzyl)amino)ethyl)acetamide]",100 to 20000
7,"COC(=O)CCCOc1cc(OCc2cccc(-c3ccccc3)c2C)ccc1CNCCNC(C)=O [Example 1036, methyl 4-(2-(((2-acetamidoethyl)amino)methyl)-5-((2-methyl-[1,1′-biphenyl]-3-yl)methoxy)phenoxy)butanoate]",100 to 20000
8,"CC(=O)NCCNCc1ccc(OCc2cccc(-c3ccccc3)c2C)cc1OCc1cccc(CO)c1 [Example 1037, N-(2-((2-((3-(hydroxymethyl)benzyl)oxy)-4-((2-methyl-[1,1′-biphenyl]-3-yl)methoxy)benzyl)amino)ethyl)acetamide]",100 to 20000
9,"CC(=O)NCCNCc1ccc(OCc2cccc(-c3ccccc3)c2C)cc1OCc1ccccc1CO [Example 1038, N-(2-((2-((2-(hydroxymethyl)benzyl)oxy)-4-((2-methyl-[1,1′-biphenyl]-3-yl)methoxy)benzyl)amino)ethyl)acetamide]",100 to 20000
10,"CC(=O)NCCNCc1ccc(OCc2cccc(-c3ccccc3)c2C)cc1OCc1ccccc1S(C)(=O)=O [Example 1041, N-(2-((4-((2-methyl-[1,1′-biphenyl]-3-yl)methoxy)-2-((2-(methylsulfonyl)benzyl)oxy)benzyl)amino)ethyl)acetamide]",100 to 20000
11,"COCCCOc1cc(OCc2cccc(-c3ccccc3)c2C)ccc1CNCCNC(C)=O [Example 1042, N-(2-((2-(3-methoxypropoxy)-4-((2-methyl-[1,1′-biphenyl]-3-yl)methoxy)benzyl)amino)ethyl)acetamide]",100 to 20000
12,"CCOc1cc(OCc2cccc(-c3ccccc3)c2C)ccc1CNCCNC(C)=O [Example 1044, N-(2-((2-ethoxy-4-((2-methyl-[1,1′-biphenyl]-3-yl)methoxy)benzyl)amino)ethyl)acetamide]",100 to 20000
13,"CC(=O)NCCNCc1ccc(OCc2cccc(-c3ccccc3)c2C)cc1OCc1ccccc1C [Example 1045, N-(2-((4-((2-methyl-[1,1′-biphenyl]-3-yl)methoxy)-2-((2-methylbenzyl)oxy)benzyl)amino)ethyl)acetamide]",100 to 20000
14,"CC(=O)NCCNCc1ccc(OCc2cccc(-c3ccccc3)c2C)cc1OCc1ccccc1F [Example 1048, N-(2-((2-((2-fluorobenzyl)oxy)-4-((2-methyl-[1,1′-biphenyl]-3-yl)methoxy)benzyl)amino)ethyl)acetamide]",100 to 20000
15,"CC(=O)NCCNCc1ccc(OCc2cccc(-c3ccccc3)c2C)cc1OCc1c(F)cccc1F [Example 1049, N-(2-((2-((2,6-difluorobenzyl)oxy)-4-((2-methyl-[1,1′-biphenyl]-3-yl)methoxy)benzyl)amino)ethyl)acetamide]",100 to 20000
16,"CC(=O)NCCNCc1ccc(OCc2cccc(-c3ccccc3)c2C)cc1OCc1cccc(C(F)(F)F)c1 [Example 1051, N-(2-((4-((2-methyl-[1,1′-biphenyl]-3-yl)methoxy)-2-((3-(trifluoromethyl)benzyl)oxy)benzyl)amino)ethyl)acetamide]",100 to 20000
17,"CC(=O)NCCNCc1ccc(OCc2cccc(-c3ccccc3)c2C)cc1OCc1ccccc1Cl [Example 1053, N-(2-((2-((2-chlorobenzyl)oxy)-4-((2-methyl-[1,1′-biphenyl]-3-yl)methoxy)benzyl)amino)ethyl)acetamide]",100 to 20000
18,"CC(=O)NCCNCc1ccc(OCc2cccc(-c3ccccc3)c2C)cc1OCc1ccccc1C#N [Example 1055, N-(2-((2-((2-cyanobenzyl)oxy)-4-((2-methyl-[1,1′-biphenyl]-3-yl)methoxy)benzyl)amino)ethyl)acetamide]",100 to 20000
19,"CC(=O)NCCNCc1ccc(OCc2cccc(-c3ccccc3)c2C)cc1OCc1ccc2ccccc2c1 [Example 1056, N-(2-((4-((2-methyl-[1,1′-biphenyl]-3-yl)methoxy)-2-(naphthalen-2-ylmethoxy)benzyl)amino)ethyl)acetamide]",100 to 20000
20,"CC(=O)NCCNCc1ccc(OCc2cccc(-c3ccccc3)c2C)cc1OCc1cc(F)ccc1F [Example 1060, N-(2-((2-((2,5-difluorobenzyl)oxy)-4-((2-methyl-[1,1′-biphenyl]-3-yl)methoxy)benzyl)amino)ethyl)acetamide]",100 to 20000

# The remaining lines, values ahead:
row,IC50 [nM],SMILES
1,100 to 20000,"CC(=O)NCCNCc1ccc(OCc2cccc(-c3ccccc3)c2C)cc1OCc1ccc(C#N)cc1 [Example 1029, N-(2-((2-((4-cyanobenzyl)oxy)-4-((2-methyl-[1,1′-biphenyl]-3-yl)methoxy)benzyl)amino)ethyl)acetamide]"
2,100 to 20000,CC(=O)NCCNCc1ccc(OCc2cccc(-c3ccccc3)c2C)cc1OCc1ccc(C(N)=O)cc1 [Example 1039]
3,100 to 20000,"CC(=O)NCCNCc1ccc(OCc2cccc(-c3ccccc3)c2C)cc1OCc1ccc(C(C)=O)cc1 [Example 1040, N-(2-((2-((4-acetylbenzyl)oxy)-4-((2-methyl-[1,1′-biphenyl]-3-yl)methoxy)benzyl)amino)ethyl)acetamide]"
4,100 to 20000,"CC(=O)NCCNCc1ccc(OCc2cccc(-c3ccccc3)c2C)cc1OCc1ccc(C(C)(C)C)cc1 [Example 1046, N-(2-((2-((4-(tert-butyl)benzyl)oxy)-4-((2-methyl-[1,1′-biphenyl]-3-yl)methoxy)benzyl)amino)ethyl)acetamide]"
5,100 to 20000,"CC(=O)NCCNCc1ccc(OCc2cccc(-c3ccccc3)c2C)cc1OCc1ccc(C)cc1 [Example 1047, N-(2-((4-((2-methyl-[1,1′-biphenyl]-3-yl)methoxy)-2-((4-methylbenzyl)oxy)benzyl)amino)ethyl)acetamide]"
6,100 to 20000,"CC(=O)NCCNCc1ccc(OCc2cccc(-c3ccccc3)c2C)cc1OCc1cccc(F)c1 [Example 1050, N-(2-((2-((3-fluorobenzyl)oxy)-4-((2-methyl-[1,1′-biphenyl]-3-yl)methoxy)benzyl)amino)ethyl)acetamide]"
7,100 to 20000,"CC(=O)NCCNCc1ccc(OCc2cccc(-c3ccccc3)c2C)cc1OCc1ccc(C(F)(F)F)cc1 [Example 1052, N-(2-((4-((2-methyl-[1,1′-biphenyl]-3-yl)methoxy)-2-((4-(trifluoromethyl)benzyl)oxy)benzyl)amino)ethyl)acetamide]"
8,100 to 20000,"CC(=O)NCCNCc1ccc(OCc2cccc(-c3ccccc3)c2C)cc1OCc1cccc(Cl)c1 [Example 1054, N-(2-((2-((3-chlorobenzyl)oxy)-4-((2-methyl-[1,1′-biphenyl]-3-yl)methoxy)benzyl)amino)ethyl)acetamide]"
9,100 to 20000,"CC(=O)NCCNCc1ccc(OCc2cccc(-c3ccccc3)c2C)cc1OCc1ccc([N+](=O)[O-])cc1 [Example 1058, N-(2-((4-((2-methyl-[1,1′-biphenyl]-3-yl)methoxy)-2-((4-nitrobenzyl)oxy)benzyl)amino)ethyl)acetamide]"
10,100 to 20000,"CC(=O)NCCNCc1ccc(OCc2cccc(-c3ccccc3)c2C)cc1OCc1ccc(F)c(F)c1 [Example 1059, N-(2-((2-((3,4-difluorobenzyl)oxy)-4-((2-methyl-[1,1′-biphenyl]-3-yl)methoxy)benzyl)amino)ethyl)acetamide]"
